SMILES strings stand for the structures. Where only a bound is given, the exact number is not on record here.

The test system of the assay is HIV-1 single-round infectious reporter virus. Briefly: Single-round infectious HIV-1 reporter virus (luciferase) infection of HeLa CD4 cells. The format is cell-based. Particulars: Human immunodeficiency virus 1, HeLa, 72 h, read-out: EC50 Group from Table 1. As to the method:
• Virus production—Human embryonic Kidney cell line, 293T, was propagated in Dulbecco's Modified Eagle Medium (Invitrogen, Carlsbad, Calif.) containing 10% fetal Bovine serum (FBS, Sigma, St. Louis, Mo.). • Virus infection-Human epithelial cell line, HeLa, expressing the HIV-1 receptor CD4 was propagated in Dulbecco's Modified Eagle Medium (Invitrogen, Carlsbad, Calif.) containing 10% fetal Bovine serum (FBS, Sigma, St. Louis, Mo.) and supplemented with 0.2 mg/mL Geneticin (Invitrogen, Carlsbad, Calif.). • Virus-Single-round infectious reporter virus was produced by co-transfecting human embryonic Kidney 293 cells with an HIV-1 envelope DNA expression vector and a proviral cDNA containing an envelope deletion mutation and the luciferase reporter gene inserted in place of HIV-1 nef sequences (Chen et al, Ref. 41). Transfections were performed using lipofectAMINE PLUS reagent as described by the manufacturer (Invitrogen, Carlsbad, Calif.). Experiment: • HeLa CD4 cells were plated in 96 well plates at a cell density of 1×10^4 cells per well in 100 μl Dulbecco's Modified Eagle Medium containing 10% fetal Bovine serum and incubated overnight. • Compound was added in a 2 μl dimethylsulfoxide solution, so that the final assay concentration would be ≦10 μM. • 100 μl of single-round infectious reporter virus in Dulbecco's Modified Eagle Medium was then added to the plated cells and compound at an approximate multiplicity of infection (MOI) of 0.01, resulting in a final volume of 200 μl per well. • Virally-infected cells were incubated at 37 degrees Celsius, in a CO2 incubator, and harvested 72 h after infection. • Viral infection was monitored by measuring luciferase expression from viral DNA in the infected cells using a luciferase reporter gene assay kit, as described by the manufacturer (Roche Molecular Biochemicals, Indianapolis, Ind.). Infected cell supernatants were removed and 50 μl of lysis buffer was added per well. After 15 minutes, 50 μl of freshly-reconstituted luciferase assay reagent was added per well. Luciferase activity was then quantified by measuring luminescence using a Wallac microbeta scintillation counter. • The percent inhibition for each compound was calculated by quantifying the level of luciferase expression in cells infected in the presence of each compound as a percentage of that observed for cells infected in the absence of compound and subtracting such a determined value from 100. • An EC50 provides a method for comparing the antiviral potency of the compounds of this disclosure. The effective concentration for fifty percent inhibition (EC50) was calculated with the Microsoft Excel Xlfit curve fitting software. For each compound, curves were generated from percent inhibition calculated at 10 different concentrations by using a four paramenter logistic model (model 205). Table 1 is the key for the data in Table 2.

Consider `COC(=O)c1ccc(OC(C)C(=O)N2CCC(=C(C#N)c3ccccc3)CC2)c(OC)c1` (centres unmarked), for which the EC50 was less than 1000 nM.

Turning to `COC(=O)c1ccc(OC(C)C(=O)N2CCC(=C(c3ccccc3)c3nnc(C)o3)CC2)c(OC)c1` (centres unmarked), the EC50 is less than 1000 nM.

In the case of `COC(=O)c1ccc(OC(C)C(=O)N2CCC(=C(c3ccccc3)c3ccccc3)CC2)c(OC)c1` (centres unmarked), the EC50 is less than 1000 nM.

As to `CC(Oc1cccc2cccnc12)C(=O)N1CCC(=C(C#N)c2ccccc2)CC1` (centres unmarked), the EC50 is less than 1000 nM.

With `COC(=O)c1ccc(OC(C)C(=O)N2CCC(=C(c3ccccc3)c3cccnc3)CC2)c(OC)c1` (centres unmarked), the EC50 was greater than 1000 nM.

Turning to `CC(Oc1cccc2ncccc12)C(=O)N1CCC(=C(C#N)c2ccccc2)CC1` (centres unmarked), the EC50 was less than 1000 nM.

For `COC(=O)c1ccc(OC(C)C(=O)N2CCC(=C(C#N)c3ccccc3)CC2C)c(OC)c1` (centres unmarked), the EC50 is less than 1000 nM.

On to `CC(Oc1cccc2ncccc12)C(=O)N1CCC(=C(c2ccccc2)c2ccccc2)CC1` (centres unmarked), for which the EC50 is greater than 1000 nM.

As to `Cc1nnc(C(=C2CCN(C(=O)C(C)Oc3cccc4ncccc34)CC2)c2ccccc2)o1` (centres unmarked), the EC50 was greater than 1000 nM.

Consider `CC(Oc1cccc2ncccc12)C(=O)N1CCC(=C(c2ccccc2)c2cccnc2)CC1` (centres unmarked), for which the EC50 is greater than 1000 nM.

With `CC(Oc1cccc2ncccc12)C(=O)N1CCC(=C(C#N)c2ccccc2)CC1C` (centres unmarked), the EC50 is less than 1000 nM.

These data come from patent US7745463B2, “Alkene piperidine derivatives as antiviral agents” (priority 2006, dated 2010).
